According to article PMC6408865 (Pharmacology Research & Perspectives, 2019):
Read-outs that look alike come from different tables or passages of the source.

Key:
[1] = test system: DGAT1 (in liver microsomes); set-up: method as in Barlind_2012; details: human liver microsomes; ref Barlind_2012; read-out: In vitro potency (IC50) against DGAT1; cited from earlier work
[2] = test system: plasma TAG; experiment: PK/PD model of plasma TAG after Oral Lipid Tolerance Test (Intralipos 20%)
[3] = test system: plasma TAG; experiment: PK/PD model of plasma TAG after Oral Lipid Tolerance Test (corn oil); details: rat OLTT, free plasma concentration, read-out: IC50 (free in vivo IC50, inhibition of exogenous TAG contribution to plasma)
Method: (§1) Full description of the OLTT in the rat has been published previously.17 In brief, 53 male Han‐Wistar rats (∼230 g), previously maintained on a chow diet, were fasted for 14 hours. […] Six remaining animals were kept untreated and served as naive controls.
Biological plausibility combined with stable parameter estimation was used in the evaluation of different potential PK/PD models to help select the optimal one. The key components of the final PK/PD TAG model are described in Figure 1. The introduction of exogenous TAG into the system is represented by a first order process from the lipid depot compartment (assumed to be the gut) to the central compartment (plasma). A lag time to accommodate the time delay from ingestion of the fatty meal to the resulting increase in plasma TAG was needed. In addition, there is an endogenous production and removal of TAG from plasma described with a turnover model controlled by the turnover rate (kin) (production) and the fractional turnover rate (kout) (loss). Turnover model was reparameterized using the relationship of kin to baseline plasma TAG (R0) (R0 = kin/kout) to increase numerical stability.
KaTAG is the absorption rate of exogenous TAG into plasma, VTAG is the volume of distribution of exogenous TAG, and TlagTAG is the time delay for the absorption of TAG from the SMM. […]

[4] = PK model of AZD7687 plasma concentrations during mouse OLTT (1-compartment); format: in vivo
Method: Oral Lipid Tolerance Test in the mouse was carried out in a similar way to rats.
(§2) Full description of all the PK models is provided in supplementary section S1.
(§3) As PK data was only collected for 4h post dose, the ability to fit complex PK models was limited. As with the rat, the aim of the PK fitting was to describe the kinetics of the compound during the OLTT instead of a full characterization of the PK properties of the compound. […] Inter-individual variability was estimated on CL and V parameters according to a log-normal distribution of individual parameters. Correlation between Cl and V parameters was allowed. […] Residual error was characterized with a proportional error model.

[5] = PK model of AZD7687 plasma concentrations during rat OLTT (1-compartment); format: in vivo
Method: as §1, §2
as §3, with “11h” for “4h”, “The” for “As with the rat, the”, “parameters.” for “parameters. Correlation between Cl and V parameters was allowed.”, “proportional plus additive” for “proportional”

[6] = test system: plasma TAG; experiment: PK/PD model of plasma TAG after Oral Lipid Tolerance Test (standardized mixed meal)
[7] = human; cited from earlier work
[8] = mouse plasma; cited from earlier work
[9] = Population PK model of AZD7687 plasma concentrations in SAD and MAD studies (2-compartment, first order absorption); format: in vivo; details: human
Method: Full details of the study protocols have previously been reported by Denison et al14 for Single Ascending Dose study (SAD) and Denison et al16 for the Multiple Ascending Dose Study (MAD). In brief, in the SAD, 80 healthy male subjects were enrolled.
as §2
Models were implemented using nonlinear mixed effects modeling in Phoenix NLME, version 1.3 (Certara). The analysis was conducted using the first order conditional estimation (FOCE‐ELS) during the sequential and simultaneous analysis (the expectation maximization method (QRPEM) was used for the simultaneous fitting of the human data due to speed and ability to converge).
Inter-individual variability was estimated on CL, V1, V2 and ka parameters according to a log-normal distribution of individual parameters. […] Residual error was characterized with a proportional plus additive error model.

[10] = test system: plasma TAG; set-up: method as in PMID 23116186; details: cited from earlier work
[11] = rat plasma; cited from earlier work
[12] = test system: DGAT1 (in liver microsomes); set-up: method as in Barlind_2012; details: rat liver microsomes; ref Barlind_2012; read-out: In vitro potency (IC50) against DGAT1; cited from earlier work
[13] = test system: plasma TAG; details: human SAD OLTT study, iAUC analysis of plasma TAG vs plasma concentration at start of meal test; read-out: in vivo IC50, previously published; cited from earlier work
[14] = test system: DGAT1 (in liver microsomes); set-up: method as in Barlind_2012; details: mouse liver microsomes; ref Barlind_2012; read-out: In vitro potency (IC50) against DGAT1; cited from earlier work
[15] = set-up: method as in PMID 23116186; details: human plasma; cited from earlier work
[16] = test system: HuTu 80 (Human gastrointestinal tumor cell line); set-up: method as in Barlind_2012; details: HuTu 80 cells; ref Barlind_2012; read-out: In vitro potency (IC50) in HuTu 80; cited from earlier work
[17] = using free concentrations in plasma

Cc1nc(C)c(-c2ccc(C3CCC(CC(=O)O)CC3)cc2)nc1C(N)=O (stereo not drawn) [AZD7687]
IC50 [1]: 70 nM | IC50 ([2]; Mus musculus, po, read-out: IC50 (free in vivo IC50, inhibition of exogenous TAG contribution to plasma), mouse OLTT, free plasma concentration): 81 nM | IC50 ([2]; read-out: IC50 (free in vivo IC50, inhibition of exogenous TAG contribution to plasma), mouse OLTT, free plasma concentration): 80 nM | IC50 [3]: 162 nM | V ([4]; Table 1, free concentrations): 13.14 L | CL/F ([4]; male, ICR, oral, supplement, free concentrations in plasma, read-out: tvCl (apparent clearance) (converted)): 36.2 mL/min/kg | Vd ([4]; male, ICR, oral, supplement, free concentrations in plasma, read-out: tvV (apparent volume of distribution)): 13.1 L/kg | clearance ([4]; male, ICR, plasma, oral, Table 1, free concentrations): 36.2 mL/min | IIV V ([5]; in vivo): 11.7% | CL/F ([5]; male, Han-Wistar, oral, supplement, free concentrations in plasma, read-out: tvCl (apparent clearance) (converted)): 12.2 mL/min/kg | clearance ([5]; male, Han-Wistar, plasma, oral, Table 1, free concentrations): 12.2 mL/min | IC50 ([6]; Homo sapiens, po, read-out: IC50 (free in vivo IC50, inhibition of exogenous TAG contribution to plasma), human OLTT, free plasma concentration): 8 nM | IC50 ([6]; read-out: IC50 (free in vivo IC50, inhibition of exogenous TAG contribution to plasma), human OLTT, free plasma concentration): 7.8 nM | side effects leading to stop of clinical development [7]: intolerable side effects | free fraction (fu) [8]: 0.1 | Cl (tvCL, apparent clearance) [9, 17]: 28.1 L/h | V2 (tvV2, peripheral volume of distribution) [9, 17]: 136.8 L | Tmax ([9]; male, plasma, post dose, oral, read-out: T max in plasma): ≤ 1 h | Vd ([9]; male, oral, using free concentrations in plasma, read-out: V (tvV1, central volume of distribution)): 320 L | IC50 ([10]; rat OLTT study, single time point data for plasma TAG and PK, read-out: in vivo IC50, previously published): 42 nM | effect on TAG excursion after OLTT ([10]; rats, exposure dependant): reduces the TAG excursion | free fraction (fu) [11]: 0.03 | IC50 [12]: 150 nM | IC50 [13]: 20 nM | IC50 [14]: 100 nM | free fraction (fu) [15]: 0.055 | IC50 [16]: 10 nM
